Here are results for 4 molecules from article PMC1851987, “Identification of the Endogenous Key Substrates of the Human Organic Cation Transporter OCT2 and Their Implication in Function of Dopaminergic Neurons” (PLoS ONE, 2007).

Series [1] addresses T1, organic cation transporter OCT2 (wild-type 400R) (Homo sapiens, UniProt O15244, S270A).
T1 sequence (O15244 1-555 S270A): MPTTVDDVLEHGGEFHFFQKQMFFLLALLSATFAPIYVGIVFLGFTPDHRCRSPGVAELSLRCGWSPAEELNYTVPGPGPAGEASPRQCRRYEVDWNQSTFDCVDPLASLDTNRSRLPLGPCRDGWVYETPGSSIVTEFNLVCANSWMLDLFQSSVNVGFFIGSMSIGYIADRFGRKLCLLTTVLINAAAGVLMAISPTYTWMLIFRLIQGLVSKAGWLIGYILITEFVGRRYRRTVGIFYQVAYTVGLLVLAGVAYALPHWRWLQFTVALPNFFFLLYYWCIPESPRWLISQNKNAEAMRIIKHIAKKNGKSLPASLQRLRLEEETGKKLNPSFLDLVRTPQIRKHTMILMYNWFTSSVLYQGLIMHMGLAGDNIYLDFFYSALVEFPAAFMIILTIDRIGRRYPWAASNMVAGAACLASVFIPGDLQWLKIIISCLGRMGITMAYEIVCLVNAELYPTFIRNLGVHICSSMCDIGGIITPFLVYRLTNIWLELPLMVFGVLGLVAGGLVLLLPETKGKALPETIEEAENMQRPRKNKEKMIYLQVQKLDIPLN
Conditions: cited from earlier work.

The subject of series [2] is OCT2-transfected HEK-293 cells. The series can be described thus: Intracellular metabolite N-methyl-salsolinol after salsolinol incubation, OCT2-transfected HEK-293 cells. In kind it is in vitro ADME, human. Conditions: mean±s.e.m., n = 3.
For series [3], the system named is SH-SY5Y cells. The series can be described thus: Intracellular metabolite N-methyl-salsolinol after salsolinol incubation, SH-SY5Y cells. In kind it is in vitro ADME, human. The following applies: mean±s.e.m., n = 3. The source says:
(§1) Beyond its physiological neuromodulatory function, there is considerable interest in the pathophysiologic role of salsolinol. […] It has been hypothesized that especially N-methyl-salsolinol is etiologically involved in apoptotic nigral cell death in PD by promoting calcium-triggered disruption of mitochondrial permeability transition.[14]

The subject of series [4] is HTZ-146 cells. Briefly: Intracellular metabolite N-methyl-salsolinol after salsolinol incubation, HTZ-146 cells. The following applies: mean±s.e.m., n = 3. The format is in vitro ADME, human.
Source text: as §1

For series [5], the target named is T1, organic cation transporter OCT2 (wild-type 400R). Briefly: Specific uptake into OCT2 (wild-type) transfected HEK-293 cells vs empty vector, LC-MS-MS. Conditions: 5 min of incubation with 10 µmol/l.
Substrate in series [6]: O=C1NC(Cc2c[nH]cn2)C(=O)N2CCCC12
Briefly: Specific uptake into OCT1-transfected HEK-293 cells. The format is cell-based, human. The following applies: other: specific uptake, 1 min of loading, mean (s.e.m.); pH 7.4; 37.0 °C.

Substrate in series [7]: O=C1NC(Cc2c[nH]cn2)C(=O)N2CCCC12
Briefly: Specific uptake into EMT-transfected HEK-293 cells. The format is cell-based, human. Conditions: other: specific uptake, 1 min of loading, mean (s.e.m.); pH 7.4; 37.0 °C.

The mark [8] stands for this setting: 48 h incubation with 10 µmol/l salsolinol.
Setting [9] is: 48 h incubation with 100 µmol/l salsolinol.

Consider `NCCc1ccc(O)c(O)c1` [dopamine], for which the OCT2-mediated transport entry in series [1] is reported as “no significant OCT2-mediated transport”.

As for `CC1c2cc(O)c(O)cc2CCN1C` (stereo not shown) [N-methyl-salsolinol], the “intracellular concentration of the metabolite N-methyl-salsolinol” value in series [2] (setting [8]) amounted to 0.89±0.06 nmol/mg protein; in series [2] (setting [9]) it was 7.56±0.41 nmol/mg protein; in series [3] (setting [8]) it was 0.18±0.01 nmol/mg protein; in series [3] (setting [9]), 1.28±0.11 nmol/mg protein; in series [4] (setting [8]), 0.17±0.01 nmol/mg protein; in series [4] (setting [9]), 1.16±0.06 nmol/mg protein. For the same molecule, the “uptake rate relative to salsolinol” value in series [5] is given as “about two-thirds”.

B1: OCT1 (Homo sapiens) (protein)
chain: MPTVDDILEQVGESGWFQKQAFLILCLLSAAFAPICVGIVFLGFTPDHHCQSPGVAELSQRCGWSPAEELNYTVPGLGPAGEAFLGQCRRYEVDWNQSALSCVDPLASLATNRSHLPLGPCQDGWVYDTPGSSIVTEFNLVCADSWKLDLFQSCLNAGFLFGSLGVGYFADRFGRKLCLLGTVLVNAVSGVLMAFSPNYMSMLLFRLLQGLVSKGNWMAGYTLITEFVGSGSRRTVAIMYQMAFTVGLVALTGLAYALPHWRWLQLAVSLPTFLFLLYYWCVPESPRWLLSQKRNTEAIKIMDHIAQKNGKLPPADLKMLSLEEDVTEKLSPSFADLFRTPRLRKRTFILMYLWFTDSVLYQGLILHMGATSGNLYLDFLYSALVEIPGAFIALITIDRVGRIYPMAMSNLLAGAACLVMIFISPDLHWLNIIIMCVGRMGITIAIQMICLVNAELYPTFVRNLGVMVCSSLCDIGGIITPFIVFRLREVWQALPLILFAVLGLLAAGVTLLLPETKGVALPETMKDAENLGRKAKPKENTIYLKVQTSEPSGT
notes: The cDNAs encoding the organic cation transporters; expressed in transfected cells; host or cells: HEK-293, stably transfected, pcDNA3
Take B1: in series [6], the Km was 655 (191) μmol/l.

B2: EMT (Homo sapiens) (protein)
chain: MPSFDEALQRVGEFGRFQRRVFLLLCLTGVTFAFLFVGVVFLGTQPDHYWCRGPSAAALAERCGWSPEEEWNRTAPASRGPEPPERRGRCQRYLLEAANDSASATSALSCADPLAAFPNRSAPLVPCRGGWRYAQAHSTIVSEFDLVCVNAWMLDLTQAILNLGFLTGAFTLGYAADRYGRIVIYLLSCLGVGVTGVVVAFAPNFPVFVIFRFLQGVFGKGTWMTCYVIVTEIVGSKQRRIVGIVIQMFFTLGIIILPGIAYFIPNWQGIQLAITLPSFLFLLYYWVVPESPRWLITRKKGDKALQILRRIAKCNGKYLSSNYSEITVTDEEVSNPSFLDLVRTPQMRKCTLILMFAWFTSAVVYQGLVMRLGIIGGNLYIDFFISGVVELPGALLILLTIERLGRRLPFAASNIVAGVACLVTAFLPEGIAWLRTTVATLGRLGITMAFEIVYLVNSELYPTTLRNFGVSLCSGLCDFGGIIAPFLLFRLAAVWLELPLIIFGILASICGGLVMLLPETKGIALPETVDDVEKLGSPHSCKCGRNKKTPVSRSHL
notes: as for B1
For the molecule B2, the Km in series [7] is on record as 126 (38) μmol/l.
